In assay [1] the test system is patient with Parkinson's disease. Put plainly: Bright light therapy plus oral atenolol in patients with Parkinson's disease. The class given is in vivo, human. How it is done:
One patient, diagnosed 3 years earlier with Parkinson's disease, was exposed to bright light therapy (1500 lux) for two, 1 hour sessions per day, one before retiring and one immediately upon arising to antagonize melatonin secretion. This patient was also prescribed 50 mg of the β-noradrenergic antagonist, Atenolol, before going to bed. The patient's performance on motor tests and their body weight were measured before treatment commenced and 2 weeks later. A second patient, diagnosed with Parkinson's disease at least 10 years previously, was tested on the same tests as the first patient.

The test system of assay [2] is marmosets made Parkinsonian with the neurotoxin MPTP. Put plainly: Oral ML-23 in marmosets made Parkinsonian with MPTP (blinded experiment). In kind it is in vivo. How it is done:
The ML-23 formulation was prepared by dissolving ML-23 in 100% DSMO (dimethylsulfoxide 0.7 ml) and then making up to volume (2.3 ml) with soy bean oil for oral administration.

The subject of another assay is 6-OHDA treated rats. Put plainly: Melatonin antagonist therapy in the 6-OHDA rat model (12 hr light/12 hr dark). The class given is in vivo. How it is done: (§1) After several days of control observations, animals were injected bilaterally with 2 μl of an 8 μg/μl solution of 6-OHDA. Body weight was measured each day just after the onset of the light cycle and motor performance was measured by assessing the performance of animals in the open field and on three tests routinely used to assess motor function. Open field activity was measured in a PVC box fitted with infrared sensors. The number of beams broken during a 10 minute test period was registered. The three reflex tests employed were latency to retract a limb elevated 25 cm above the surface of the test area, latency to step up or down from a raised platform when the rear torso was elevated 30 cm above the test area surface and latency to step outside a prescribed area.
The compound ML-23 was tested in the 6-OHDA model described in Example 1 using a 12 hr light/12 hr dark cycle. Briefly, animals were subject to 13 days controlled observation, on day 14 they were injected with 6-OHDA. Animals in the treatment group were given melatonin antagonist (ML-23 in DMSO (3 mg per mL)) therapy (3 mg/kg/ml, interperitoneal injection (ip)) once on the day of 6-OHDA injection and then twice daily for the 3 subsequent days.
A second melatonin antagonist, S-20928, was tested in the 6-OHDA model described in Examples 1 and 7.

For assay [3], the system named is patients suffering from Parkinson's disease. As to conditions: cited from earlier work.
The subject of assay [4] is rats receiving intraperitoneal injections of MPTP. Put plainly: Intracerebroventricular melatonin implants in the MPTP rat model. In kind it is in vivo. The method, then: The rats were implanted with intracerebral melatonin pellets or inert nylon as described in Example 3 with the exception that they were not implanted with intrahypothalamic cannulae. After the control performance was assessed, all animals received intraperitoneal injections of MPTP on day 4 (7 mg/kg/i.p.). Given that the effects of MPTP are less prolonged and traumatic than 6-OHDA, this provided an opportunity to study the phenomenon of recovery. Body weight was measured daily and motor performance was measured 1 h and 2 days after injection.

In assay [5] the test system is rats receiving intracerebral injections of 6-OHDA. Nature of the assay: Intracerebroventricular melatonin implants in the 6-OHDA rat model. In kind it is in vivo. How it is done: as §1
In order to produce a sustained central release of melatonin, Regulin® pellets were implanted into the left cerebral ventricle of rats at the time of cannulation of the posterior, lateral hypothalamus (PLH). Control rats were implanted with inert nylon pellets of the same dimensions. […] Animals were cannulated and tested as described in Example 1.

[6] abbreviates: ML-23 3 mg/kg ip, once on day of 6-OHDA then twice daily for 3 days.

As for `CC(C)NCC(O)COc1ccc(CC(N)=O)cc1` (stereo not shown) [Atenolol], the “time taken to walk a 3 meter path and return” value in assay [1] (first patient, after 2 weeks of bright light (1500 lux, two 1 hour sessions per day) plus Atenolol 50 mg, 31.3 seconds before treatment) came out at 13.5 s. For the same compound, the “gain in body weight” value in assay [1] (first patient, after 2 weeks of treatment) was 3 kilos. Moreover, the tremor and rigidity entry in assay [1] (first patient, after treatment) is reported as “improved”. In assay [1] (first patient, after treatment, permitted a decrease of daily 1-dopa dose), the “memory loss and mental state” value is “improved”. For the same compound, in assay [1] (first patient, either leg, two weeks after treatment, 58 s (R) 65 s (L) before treatment), the “time taken to lift foot to knee and return it to the floor 10 times” value came out at 44 s. Also, in assay [1] (second patient, bright light (1000 lux) 1 hour morning and night plus Atenolal 50 mg, after 5 weeks of treatment, FIG. 26), the “latency to touch knee with foot and return to the floor 10 times” value is on record as “improved dramatically”.
For the compound `COc1ccc2c(c1)C(CCNc1cccc([N+](=O)[O-])c1[N+](=O)[O-])CN2` (stereo not shown) [ML-23], in assay [2] (ML-23 oral 5 mg/kg twice daily for 52 days, vehicle 9.5, p=0.006), the “number of changes in head movement” value worked out at 19.8. In addition, the “horizontal movement at night” value in assay [2] (ML-23 oral 5 mg/kg twice daily for 52 days, vehicle 35 counts, p=0.01) was found to be 80 counts per 30 minutes. For the same compound, in assay [2] (ML-23 oral 5 mg/kg twice daily for 52 days, vehicle 308, p-0.01), the vertical movement worked out at 594 per 30 minutes. In assay [2] (ML-23 oral, vehicle 1 gram per day, p=0.0001), the “intake of dry food” value was found to be 3 grams per day. Besides, the “psychotic features score (agitation, frantic non-regulatory biting, vocalization, obstinate progression)” value in assay [2] (positive symptoms 48 hours after MPTP treatment, oral ML-23, vehicle score=10, p=0.0005) was determined as 2.5. Besides, in assay [2] (scale 0= normal to 20= severely Parkinsonian, ML-23 oral 5 mg/kg twice daily, vehicle 8.4, p-0.006), the “overall clinical rating of Parkinsonian behavior” value is 1.4. In the assay with 6-OHDA treated rats (ML-23 3 mg/kg ip), the “horizontal and vertical movement, particularly at night” value is given as “significantly improved”; the “overall performance versus vehicle following 6-ODHA injection” value was “performed better than those treated with vehicle”. In the assay on 6-OHDA treated rats (setting [6]), the body weight loss entry is “prevented the severe body weight loss” and the “development of severe motor impairment” value was “prevented the development of severe motor impairment”. Moreover, in the assay on 6-OHDA treated rats (ML-23 3 mg/kg ip, 3 out of 7 animals in the 6-ODHA/vehicle group died within 6 days), the survival / recovery entry was “all rats treated with ML-23 recovered”. In addition, the “latency to perform the 3 motor tests (retract a limb, step, ambulate)” value with 6-OHDA treated rats (ML-23 3 mg/kg ip, test and recovery periods) is “improved”.
With `O=C(NCCc1cccc2ccccc12)C1CCC1` [S-20928], in the assay with 6-OHDA treated rats (S-20928 1 mg/kg ip), the “body weight (most resilient consequence of DA degeneration)” value was “capable of repairing”, the “morbidity of the disease” value is “decreases the morbidity of the disease” and the survival time entry was “increases survival time”.
On to `COc1ccc2[nH]cc(CCNC(C)=O)c2c1` [melatonin], for which the “amelioration of the clinical features of Parkinson's disease” value in assay [3] (daily doses of 1000-1200 mg of melatonin per day, ref (18)) is recorded as 20-36%. In assay [3] (daily doses of 1000-1200 mg of melatonin per day, ref (19)), the tremor result is “significant reduction in tremor”. The “cardinal features of Parkinson's disease, replication study” value in assay [3] (similar doses over the same time period, ref (20)) is recorded as “did not improve the cardinal features”. Further, the body weight gain result in assay [4] (melatonin implants vs nylon, MPTP 7 mg/kg i.p. on day 4, p=0.0201, FIG. 22A/B) is listed as “did not gain as much weight”. Also, the “ability to step, assessed during the night” value in assay [4] (melatonin implants vs nylon, p=0.0238, FIG. 24) is recorded as “significant decrement in the ability to step”. The “motor impairment after MPTP (open field locomotion)” value in assay [4] (melatonin pellets vs nylon, overall performance p=0.0344, night trend p=0.0638, FIG. 23A/B) is recorded as “increased the motor impairment”. Further, the “reduction in open field performance relative to animals implanted with inert nylon” value in assay [5] (melatonin implants after 6-OHDA) is reported as “more than twice as much”. For the same compound, the “loss of body weight after 6-OHDA” value in assay [5] (melatonin implants vs nylon implants, day 16 to end of experiment, p=0.0143, FIG. 14) was “more severe loss of body weight”. The “overall change in open field performance and that during the test session” value in assay [5] (melatonin implants vs nylon implants, p=0.0022, FIGS. 15A and B) is recorded as “significantly worse”. Besides, in assay [5] (melatonin implants vs nylon, FIGS. 16-18), the “performance on the 3 motor tests (limb retraction, step, ambulate)” value is given as “slower than the animals implanted with nylon although not significant”.

Source of the values: patent US20020068692A1, “Method for the treatment of neurological or neuropsychiatric disorders” (priority 1996, published 2002).
